Laboratory results taken from patent US8633200B2, “Inhibitors of human immunodeficiency virus replication” (priority 2010, dated 2014).
Structures can show the parent of a compound that is named as a salt.

These compounds were tested on recombinant NL-Rluc virus (NL4-3 with Renilla Luciferase gene) in MT-2 cells (assay: Inhibition of HIV replication (NL-Rluc luciferase reporter virus, MT-2 cells)). Conditions: NL43, 120 h, read-out: Activity.
Format: cell-based, human immunodeficiency virus (HIV)

SMILES	EC50 [µM]
Cc1ccc(-c2c(C(OC(C)(C)C)C(=O)O)c(C)nc3cc(-c4ccccc4)nn23)cc1C (stereo not shown) [Example 1, 2-tert-Butoxy-2-(7-(3,4-dimethylphenyl)-5-methyl-2-phenylpyrazolo[1,5-a]pyrimidin-6-yl)acetic acid, TFA salt]	> 1
Cc1nc2cc(-c3ccccc3)nn2c(-c2ccc3c(c2)CCC3)c1C(OC(C)(C)C)C(=O)O (stereo not shown) [Example 2]	> 1
Cc1nc2cc(-c3ccccc3)nn2c(-c2ccc3c(c2)CCCO3)c1C(OC(C)(C)C)C(=O)O (stereo not shown) [Example 3]	0.1 to 1
Cc1nc2cc(-c3ccccc3)nn2c(-c2ccc(Cl)cc2)c1C(OC(C)(C)C)C(=O)O (stereo not shown) [Example 4]	> 1
Cc1nc2cc(-c3ccccc3)nn2c(-c2ccc3ccccc3c2)c1C(OC(C)(C)C)C(=O)O (stereo not shown) [Example 5]	> 1
Cc1nc2cc(-c3ccccc3)nn2c(-c2cccnc2)c1C(OC(C)(C)C)C(=O)O (stereo not shown) [Example 6]	> 1
Cc1nc2cc(-c3ccccc3)nn2c(-c2ccccc2OC(F)(F)F)c1C(OC(C)(C)C)C(=O)O (stereo not shown) [Example 7]	> 1
COc1cccc(-c2c(C(OC(C)(C)C)C(=O)O)c(C)nc3cc(-c4ccccc4)nn23)c1 (stereo not shown) [Example 8]	> 1
COc1ccccc1-c1c(C(OC(C)(C)C)C(=O)O)c(C)nc2cc(-c3ccccc3)nn12 (stereo not shown) [Example 9]	> 1
Cc1nc2cc(-c3ccccc3)nn2c(-c2ccccc2)c1C(OC(C)(C)C)C(=O)O (stereo not shown) [Example 10]	> 1
CC(=O)Nc1ccc(-c2c(C(OC(C)(C)C)C(=O)O)c(C)nc3cc(-c4ccccc4)nn23)cc1 (stereo not shown) [Example 11]	> 1
COc1ccc(-c2c(C(OC(C)(C)C)C(=O)O)c(C)nc3cc(-c4ccccc4)nn23)cn1 (stereo not shown) [Example 12]	> 1
Cc1nc2cc(-c3ccccc3)nn2c(-c2ccc(C#N)cc2)c1C(OC(C)(C)C)C(=O)O (stereo not shown) [Example 13]	> 1
Cc1ccccc1-c1c(C(OC(C)(C)C)C(=O)O)c(C)nc2cc(-c3ccccc3)nn12 (stereo not shown) [Example 14]	> 1
Cc1nc2cc(-c3ccccc3)nn2c(-c2ccc(C(F)(F)F)cc2)c1C(OC(C)(C)C)C(=O)O (stereo not shown) [Example 15]	> 1
Cc1nc2cc(-c3ccccc3)nn2c(-c2cccc(Cl)c2)c1C(OC(C)(C)C)C(=O)O (stereo not shown) [Example 16]	> 1
Cc1cccc(-c2c(C(OC(C)(C)C)C(=O)O)c(C)nc3cc(-c4ccccc4)nn23)c1 (stereo not shown) [Example 17]	> 1
Cc1nc2cc(-c3ccccc3)nn2c(-c2ccc(F)cc2F)c1C(OC(C)(C)C)C(=O)O (stereo not shown) [Example 18]	> 1
Cc1nc2cc(-c3ccccc3)nn2c(-c2ccc3c(c2)OCCO3)c1C(OC(C)(C)C)C(=O)O (stereo not shown) [Example 19]	> 1
Cc1nc2cc(-c3ccccc3)nn2c(-c2ccc(O)cc2)c1C(OC(C)(C)C)C(=O)O (stereo not shown) [Example 20]	> 1
Cc1nc2cc(-c3ccccc3)nn2c(-c2ccncc2)c1C(OC(C)(C)C)C(=O)O (stereo not shown) [Example 21]	> 1

SMILES	EC50 [µM]
COc1ccc(-c2c(C(OC(C)(C)C)C(=O)O)c(C)nc3cc(-c4ccccc4)nn23)cc1OC (stereo not shown) [Example 22]	> 1
Cc1nc2cc(-c3ccccc3)nn2c(-c2ccc(F)cc2)c1C(OC(C)(C)C)C(=O)O (stereo not shown) [Example 23]	> 1
Cc1nc2cc(-c3ccccc3)nn2c(-c2ccc(Oc3ccccc3)cc2)c1C(OC(C)(C)C)C(=O)O (stereo not shown) [Example 24]	> 1
Cc1nc2cc(-c3ccccc3)nn2c(-c2ccc(OC(F)(F)F)cc2)c1C(OC(C)(C)C)C(=O)O (stereo not shown) [Example 25]	> 1
Cc1nc2cc(-c3ccccc3)nn2c(-c2ccc3c(c2)CCO3)c1C(OC(C)(C)C)C(=O)O (stereo not shown) [Example 26]	0.1 to 1
Cc1nc2cc(-c3ccccc3)nn2c(-c2ccc(Cl)cc2F)c1C(OC(C)(C)C)C(=O)O (stereo not shown) [Example 27]	> 1
Cc1nc2cc(-c3ccccc3)nn2c(-c2ccc3occc3c2)c1C(OC(C)(C)C)C(=O)O (stereo not shown) [Example 28]	> 1
COc1ccc(-c2c(C(OC(C)(C)C)C(=O)O)c(C)nc3cc(-c4ccccc4)nn23)cc1C(F)(F)F (stereo not shown) [Example 29]	> 1
Cc1nc2cc(-c3ccccc3)nn2c(-c2ccc3c(c2)OCO3)c1C(OC(C)(C)C)C(=O)O (stereo not shown) [Example 30]	> 1
Cc1nc2cc(-c3ccccc3)nn2c(-c2ccc(OCc3ccccc3)cc2)c1C(OC(C)(C)C)C(=O)O (stereo not shown) [Example 31]	> 1
COc1ccc(-c2c(C(OC(C)(C)C)C(=O)O)c(C)nc3cc(-c4ccccc4)nn23)cc1 (stereo not shown) [Example 32]	> 1
COc1ccc(-c2c(C(OC(C)(C)C)C(=O)O)c(C)nc3cc(-c4ccccc4)nn23)cc1F (stereo not shown) [Example 33]	> 1
Cc1nc2cc(-c3ccccc3)nn2c(-c2ccc(OC(C)C)cc2)c1C(OC(C)(C)C)C(=O)O (stereo not shown) [Example 34]	> 1
COc1cc(F)c(-c2c(C(OC(C)(C)C)C(=O)O)c(C)nc3cc(-c4ccccc4)nn23)cc1F (stereo not shown) [Example 35]	> 1
Cc1nc2cc(-c3ccccc3)nn2c(-c2ccc3c(ccn3C)c2)c1C(OC(C)(C)C)C(=O)O (stereo not shown) [Example 36]	0.1 to 1
Cc1nc2cc(-c3ccccc3)nn2c(-c2ccc3c4c(ccnc24)CCO3)c1C(OC(C)(C)C)C(=O)O (stereo not shown) [Example 37]	> 1
Cc1nc2cc(-c3ccccc3)nn2c(-c2cc(F)c3c(c2C)CCCO3)c1C(OC(C)(C)C)C(=O)O (stereo not shown) [Example 38]	0.1 to 1
Cc1nc2cc(-c3ccccc3)nn2c(-c2cc(F)c3c(c2C)CCCO3)c1[C@H](OC(C)(C)C)C(=O)O [Example 39, (2S)-2-tert-butoxy-2-(7-(8-fluoro-5-methylchroman-6-yl)-5-methyl-2-phenylpyrazolo[1,5-a]pyrimidin-6-yl)acetic acid]	< 0.1
Cc1nc2cc(-c3ccccc3)nn2c(-c2cc(F)c3c(c2C)CCCO3)c1[C@@H](OC(C)(C)C)C(=O)O [Example 40, (2R)-2-tert-butoxy-2-(7-(8-fluoro-5-methylchroman-6-yl)-5-methyl-2-phenylpyrazolo[1,5-a]pyrimidin-6-yl)acetic acid]	> 1
Cc1ccc(-c2c(C(OC(C)(C)C)C(=O)O)c(C)nc3cc(-c4ccccc4)nn23)cc1 (stereo not shown) [Example 41, 2-tert-Butoxy-2-(5-methyl-2-phenyl-7-p-tolylpyrazolo[1,5-a]pyrimidin-6-yl)acetic acid, TFA salt]	0.1 to 1
Cc1ccc(-c2c(C(OC(C)(C)C)C(=O)O)c(C)nc3ccnn23)cc1 (stereo not shown) [Example 42, 2-tert-Butoxy-2-(5-methyl-7-p-tolylpyrazolo[1,5-a]pyrimidin-6-yl)acetic acid, TFA salt]	> 1

SMILES	EC50 [µM]
Cc1nc2cc(-c3ccccc3)nn2c(C)c1C(OC(C)(C)C)C(=O)O (stereo not shown) [Example 43, 2-tert-Butoxy-2-(5,7-dimethyl-2-phenylpyrazolo[1,5-a]pyrimidin-6-yl)acetic acid, TFA salt]	> 1
Cc1nc2c(-c3ccccc3)cnn2c(-c2cc(F)c3c(c2C)CCCO3)c1C(OC(C)(C)C)C(=O)O (stereo not shown) [Example 44, 2-tert-Butoxy-2-(7-(8-fluoro-5-methylchroman-6-yl)-5-methyl-3-phenylpyrazolo[1,5-a]pyrimidin-6-yl)acetic acid, TFA salt]	> 1
Cc1nc2c(-c3ccccc3)cnn2c(-c2ccc3c(c2)CCCO3)c1C(OC(C)(C)C)C(=O)O (stereo not shown) [Example 45, 2-tert-Butoxy-2-(7-(chroman-6-yl)-5-methyl-3-phenylpyrazolo[1,5-a]pyrimidin-6-yl)acetic acid, TFA salt]	0.1 to 1
Cc1ccc(-c2cc3nc(C)c(C(OC(C)(C)C)C(=O)O)c(-c4cc(F)c5c(c4C)CCCO5)n3n2)cc1 (stereo not shown) [Example 46, 2-tert-Butoxy-2-(7-(8-fluoro-5-methylchroman-6-yl)-5-methyl-2-p-tolylpyrazolo[1,5-a]pyrimidin-6-yl)acetic acid, TFA salt]	< 0.1
Cc1ccc(-c2cc3nc(C)c(C(OC(C)(C)C)C(=O)O)c(-c4ccc5c(c4)CCCO5)n3n2)cc1 (stereo not shown) [Example 47]	< 0.1
Cc1nc2cc(-c3ccccc3)nn2c(-c2cc3ccccc3n2C)c1C(OC(C)(C)C)C(=O)O (stereo not shown) [Example 48]	> 1
CCC(C)c1ccc(-c2c(C(OC(C)(C)C)C(=O)O)c(C)nc3cc(-c4ccccc4)nn23)cc1 (stereo not shown) [Example 49]	> 1
Cc1nc2cc(-c3ccccc3)nn2c(-c2ccc3ncccc3c2)c1C(OC(C)(C)C)C(=O)O (stereo not shown) [Example 50]	> 1
Cc1nc2cc(-c3ccccc3)nn2c(-c2ccc3cc[nH]c3c2)c1C(OC(C)(C)C)C(=O)O (stereo not shown) [Example 51]	> 1
COc1ccc(-c2c(C(OC(C)(C)C)C(=O)O)c(C)nc3cc(-c4ccccc4)nn23)c(Cl)c1 (stereo not shown) [Example 52]	> 1
Cc1ccc(-c2c(C(OC(C)(C)C)C(=O)O)c(C)nc3cc(-c4ccccc4)nn23)c(Cl)c1 (stereo not shown) [Example 53]	0.1 to 1
Cc1ccc(-c2c(C(OC(C)(C)C)C(=O)O)c(C)nc3cc(-c4ccccc4)nn23)c(F)c1 (stereo not shown) [Example 54]	0.1 to 1
Cc1nc2cc(-c3ccccc3)nn2c(-c2ccccc2Cl)c1C(OC(C)(C)C)C(=O)O (stereo not shown) [Example 55]	> 1
CCc1ccc(-c2c(C(OC(C)(C)C)C(=O)O)c(C)nc3cc(-c4ccccc4)nn23)cc1 (stereo not shown) [Example 56]	> 1
Cc1nc2cc(-c3ccccc3)nn2c(-c2ccc(C(C)C)cc2)c1C(OC(C)(C)C)C(=O)O (stereo not shown) [Example 57]	> 1
CSc1ccc(-c2c(C(OC(C)(C)C)C(=O)O)c(C)nc3cc(-c4ccccc4)nn23)cc1 (stereo not shown) [Example 58]	> 1
Cc1cc(-c2c(C(OC(C)(C)C)C(=O)O)c(C)nc3cc(-c4ccccc4)nn23)ccc1F (stereo not shown) [Example 59]	> 1
Cc1cc(F)ccc1-c1c(C(OC(C)(C)C)C(=O)O)c(C)nc2cc(-c3ccccc3)nn12 (stereo not shown) [Example 60]	> 1
Cc1ccc(-c2c(C(OC(C)(C)C)C(=O)O)c(C)nc3cc(-c4ccccc4)nn23)cc1F (stereo not shown) [Example 61]	> 1
Cc1ccc(F)c(-c2c(C(OC(C)(C)C)C(=O)O)c(C)nc3cc(-c4ccccc4)nn23)c1 (stereo not shown) [Example 62]	> 1

Same assay, conditions: NL43, 120 h, read-out: EC50 μM

SMILES	EC50 [µM]
Cc1ccc(-c2c(C(OC(C)(C)C)C(=O)O)c(C)nc3cc(-c4ccccc4)nn23)cc1 (stereo not shown) [Example 41, 2-tert-Butoxy-2-(5-methyl-2-phenyl-7-p-tolylpyrazolo[1,5-a]pyrimidin-6-yl)acetic acid, TFA salt]	0.6
Cc1ccc(-c2c(C(OC(C)(C)C)C(=O)O)c(C)nc3ccnn23)cc1 (stereo not shown) [Example 42, 2-tert-Butoxy-2-(5-methyl-7-p-tolylpyrazolo[1,5-a]pyrimidin-6-yl)acetic acid, TFA salt]	4.5
Cc1nc2cc(-c3ccccc3)nn2c(C)c1C(OC(C)(C)C)C(=O)O (stereo not shown) [Example 43, 2-tert-Butoxy-2-(5,7-dimethyl-2-phenylpyrazolo[1,5-a]pyrimidin-6-yl)acetic acid, TFA salt]	40
Cc1nc2c(-c3ccccc3)cnn2c(-c2cc(F)c3c(c2C)CCCO3)c1C(OC(C)(C)C)C(=O)O (stereo not shown) [Example 44, 2-tert-Butoxy-2-(7-(8-fluoro-5-methylchroman-6-yl)-5-methyl-3-phenylpyrazolo[1,5-a]pyrimidin-6-yl)acetic acid, TFA salt]	3
Cc1nc2c(-c3ccccc3)cnn2c(-c2ccc3c(c2)CCCO3)c1C(OC(C)(C)C)C(=O)O (stereo not shown) [Example 45, 2-tert-Butoxy-2-(7-(chroman-6-yl)-5-methyl-3-phenylpyrazolo[1,5-a]pyrimidin-6-yl)acetic acid, TFA salt]	0.24
Cc1ccc(-c2cc3nc(C)c(C(OC(C)(C)C)C(=O)O)c(-c4cc(F)c5c(c4C)CCCO5)n3n2)cc1 (stereo not shown) [Example 46, 2-tert-Butoxy-2-(7-(8-fluoro-5-methylchroman-6-yl)-5-methyl-2-p-tolylpyrazolo[1,5-a]pyrimidin-6-yl)acetic acid, TFA salt]	0.09
Cc1ccc(-c2cc3nc(C)c(C(OC(C)(C)C)C(=O)O)c(-c4ccc5c(c4)CCCO5)n3n2)cc1 (stereo not shown) [Example 47]	0.08
Cc1nc2cc(-c3ccccc3)nn2c(-c2ccc3ncccc3c2)c1C(OC(C)(C)C)C(=O)O (stereo not shown) [Example 50]	2.4
Cc1nc2cc(-c3ccccc3)nn2c(-c2ccc(C(C)C)cc2)c1C(OC(C)(C)C)C(=O)O (stereo not shown) [Example 57]	1.7
CSc1ccc(-c2c(C(OC(C)(C)C)C(=O)O)c(C)nc3cc(-c4ccccc4)nn23)cc1 (stereo not shown) [Example 58]	3.1
Cc1ccc(F)c(-c2c(C(OC(C)(C)C)C(=O)O)c(C)nc3cc(-c4ccccc4)nn23)c1 (stereo not shown) [Example 62]	5
